In paper PMC5218480 (PLoS ONE, 2017):

Test system: MV-4-11 cells
Assay: Gene expression microarray analysis (Affymetrix PrimeView) and GSEA
Format: cell-based, human
Set-up: RFU PODN (11730768_x_at) / Fold change /veh PODN (11730768_x_at) / RFU LINC00158 (11744669_a_at) / Fold change /veh LINC00158 (11744669_a_at) / RFU DUSP10 (11751237_a_at) / Fold change /veh DUSP10 (11751237_a_at) / RFU ID3 (11757404_x_at) / Fold change /veh ID3 (11757404_x_at) / RFU PLEKHG5 (11737974_s_at) / Fold change /veh PLEKHG5 (11737974_s_at) / RFU LRRC4B (11730491_at) / Fold change /veh LRRC4B (11730491_at) / RFU GIMAP4 (11747438_a_at) / Fold change /veh GIMAP4 (11747438_a_at) / RFU KRT8 (11758183_x_at) / Fold change /veh KRT8 (11758183_x_at) / RFU CNN1 (11734310_a_at) / Fold change /veh CNN1 (11734310_a_at) / RFU VPS37D (11726825_at) / Fold change /veh VPS37D (11726825_at) / RFU C10orf10 (11716522_x_at) / Fold change /veh C10orf10 (11716522_x_at) / RFU KIR2DL2 /// KIR2DL4 /// KIR2DL5A /// KIR2DL5B /// KIR2DS1 /// KIR2DS2 /// KIR2DS3 /// KIR2DS4 /// KIR3DL3 /// KIR3DL3 /// KIR3DS1 (11738374_at) / Fold change /veh KIR2DL2 /// KIR2DL4 /// KIR2DL5A /// KIR2DL5B /// KIR2DS1 /// KIR2DS2 /// KIR2DS3 /// KIR2DS4 /// KIR3DL3 /// KIR3DL3 /// KIR3DS1 (11738374_at) / RFU C1QL1 (11718748_at) / Fold change /veh C1QL1 (11718748_at) / RFU TMPRSS4 (11747572_a_at) / Fold change /veh TMPRSS4 (11747572_a_at) / RFU HAMP (11756126_x_at) / Fold change /veh HAMP (11756126_x_at) / RFU RNFT2 (11725882_a_at) / Fold change /veh RNFT2 (11725882_a_at) / RFU NR4A2 (11747474_a_at) / Fold change /veh NR4A2 (11747474_a_at) / RFU ABCC12 (11746883_a_at) / Fold change /veh ABCC12 (11746883_a_at) / RFU TMEM136 (11760407_x_at) / Fold change /veh TMEM136 (11760407_x_at) / RFU CLDN22 /// WWC2 (11732394_at) / Fold change /veh CLDN22 /// WWC2 (11732394_at) / RFU HLA-DPB1 (11760878_x_at) / Fold change /veh HLA-DPB1 (11760878_x_at) / RFU SPINT1 (11716480_a_at) / Fold change /veh SPINT1 (11716480_a_at) / RFU GAP43 (11754022_s_at) / Fold change /veh GAP43 (11754022_s_at) / RFU A4GNT (11735810_at) / Fold change /veh A4GNT (11735810_at) / RFU PRB3 (11715151_x_at) / Fold change /veh PRB3 (11715151_x_at) / RFU TUBB4B (11761932_at) / Fold change /veh TUBB4B (11761932_at) / RFU CAPN14 (11732068_a_at) / Fold change /veh CAPN14 (11732068_a_at) / RFU TMCC2 (11721928_a_at) / Fold change /veh TMCC2 (11721928_a_at) / RFU IRGQ (11745062_a_at) / Fold change /veh IRGQ (11745062_a_at) / RFU FAM174B (11720279_a_at) / Fold change /veh FAM174B (11720279_a_at) / RFU TMPRSS4 (11748680_a_at) / Fold change /veh TMPRSS4 (11748680_a_at) / RFU FAM212B (11763350_a_at) / Fold change /veh FAM212B (11763350_a_at) / RFU PLEKHG5 (11743358_a_at) / Fold change /veh PLEKHG5 (11743358_a_at) / RFU ZSCAN30 (11745921_a_at) / Fold change /veh ZSCAN30 (11745921_a_at) / RFU CMKLR1 (11741424_a_at) / Fold change /veh CMKLR1 (11741424_a_at) / RFU LOC101060620 /// MAPK8IP1 (11723275_at) / Fold change /veh LOC101060620 /// MAPK8IP1 (11723275_at) / RFU SPTSSB (11747773_x_at) / Fold change /veh SPTSSB (11747773_x_at) / RFU PRSS12 (11739890_at) / Fold change /veh PRSS12 (11739890_at) / RFU BIN1 (11741810_x_at) / Fold change /veh BIN1 (11741810_x_at) / RFU WNT11 (11732464_a_at) / Fold change /veh WNT11 (11732464_a_at) / RFU C10orf10 (11716521_a_at) / Fold change /veh C10orf10 (11716521_a_at) / RFU C5orf56 (11738089_at) / Fold change /veh C5orf56 (11738089_at) / RFU CYB561 (11721691_x_at) / Fold change /veh CYB561 (11721691_x_at) / RFU ANKRD19P (11752326_a_at) / Fold change /veh ANKRD19P (11752326_a_at) / RFU OR2T12 /// OR2T33 /// OR2T8 (11738714_s_at) / Fold change /veh OR2T12 /// OR2T33 /// OR2T8 (11738714_s_at) / RFU VCAN (11748164_a_at) / Fold change /veh VCAN (11748164_a_at) / RFU JSRP1 (11732532_at) / Fold change /veh JSRP1 (11732532_at) / RFU KRTAP10-11 (11738290_x_at) / Fold change /veh KRTAP10-11 (11738290_x_at) / RFU MYO3A (11730013_a_at) / Fold change /veh MYO3A (11730013_a_at) / RFU EBF3 (11725865_a_at) / Fold change /veh EBF3 (11725865_a_at) / RFU CAMK2N1 (11719241_x_at) / Fold change /veh CAMK2N1 (11719241_x_at) / RFU C5orf56 (11738088_a_at) / Fold change /veh C5orf56 (11738088_a_at) / RFU OLFML3 (11715873_a_at) / Fold change /veh OLFML3 (11715873_a_at) / RFU LOC100653217 /// NTM (11731650_a_at) / Fold change /veh LOC100653217 /// NTM (11731650_a_at) / RFU MAPK11 (11762145_a_at) / Fold change /veh MAPK11 (11762145_a_at) / RFU FIZ1 (11724087_x_at) / Fold change /veh FIZ1 (11724087_x_at) / RFU OASL (11726364_x_at) / Fold change /veh OASL (11726364_x_at) / RFU SOX15 (11748057_x_at) / Fold change /veh SOX15 (11748057_x_at) / RFU CD79A (11719716_a_at) / Fold change /veh CD79A (11719716_a_at) / RFU HIST1H1D (11736915_at) / Fold change /veh HIST1H1D (11736915_at) / RFU CASKIN2 (11723855_a_at) / Fold change /veh CASKIN2 (11723855_a_at) / RFU LOC730098 (11760151_x_at) / Fold change /veh LOC730098 (11760151_x_at) / RFU OR4N2 (11742367_at) / Fold change /veh OR4N2 (11742367_at) / RFU PRRT2 (11749266_a_at) / Fold change /veh PRRT2 (11749266_a_at) / RFU SNX32 (11753110_a_at) / Fold change /veh SNX32 (11753110_a_at) / RFU CDHR5 (11726645_a_at) / Fold change /veh CDHR5 (11726645_a_at) / RFU RCAN1 (11760418_a_at) / Fold change /veh RCAN1 (11760418_a_at) / RFU FAM167A (11723789_a_at) / Fold change /veh FAM167A (11723789_a_at) / RFU FAM26E (11764081_at) / Fold change /veh FAM26E (11764081_at) / RFU ISYNA1 (11749810_s_at) / Fold change /veh ISYNA1 (11749810_s_at) / RFU ACY1 (11761880_at) / Fold change /veh ACY1 (11761880_at) / RFU 11764098_at / Fold change /veh 11764098_at / RFU SAMD14 (11745864_x_at) / Fold change /veh SAMD14 (11745864_x_at) / RFU NPB (11741838_a_at) / Fold change /veh NPB (11741838_a_at) / RFU TMPRSS6 (11731388_a_at) / Fold change /veh TMPRSS6 (11731388_a_at) / RFU KRTAP10-2 (11738614_at) / Fold change /veh KRTAP10-2 (11738614_at) / RFU ARHGAP8 /// PRR5-ARHGAP8 (11727945_x_at) / Fold change /veh ARHGAP8 /// PRR5-ARHGAP8 (11727945_x_at) / RFU KRTAP5-7 /// NADSYN1 (11734609_at) / Fold change /veh KRTAP5-7 /// NADSYN1 (11734609_at) / RFU RASL12 (11751679_a_at) / Fold change /veh RASL12 (11751679_a_at) / RFU CDKN2B (11736163_a_at) / Fold change /veh CDKN2B (11736163_a_at) / RFU PRF1 (11729649_at) / Fold change /veh PRF1 (11729649_at) / RFU, ZNF638 /// ZNF638-IT1 / Fold change vs veh, ZNF638 /// ZNF638-IT1 / RFU, PANK3 / Fold change vs veh, PANK3 / RFU, SH3YL1 / Fold change vs veh, SH3YL1 / RFU, ZEB2 / Fold change vs veh, ZEB2 / RFU, NRIP1 / Fold change vs veh, NRIP1 / RFU, PTTG1IP / Fold change vs veh, PTTG1IP / RFU, CAPN2 / Fold change vs veh, CAPN2 / RFU, MED14 / Fold change vs veh, MED14 / RFU, SNORA58 / Fold change vs veh, SNORA58 / RFU, C1orf63 / Fold change vs veh, C1orf63 / RFU, LRRFIP1 / Fold change vs veh, LRRFIP1 / RFU, NDUFAF7 / Fold change vs veh, NDUFAF7 / RFU, SLC12A2 / Fold change vs veh, SLC12A2 / RFU, IBTK / Fold change vs veh, IBTK / RFU, ESF1 / Fold change vs veh, ESF1 / Fold change vs veh, TMEM50B / RFU, TAOK1 / Fold change vs veh, TAOK1 / RFU, ACBD3 / Fold change vs veh, ACBD3 / RFU, TMA16 / Fold change vs veh, TMA16 / RFU, RWDD3 / Fold change vs veh, RWDD3 / RFU, BCAT1 / Fold change vs veh, BCAT1 / RFU, EDEM3 / Fold change vs veh, EDEM3 / RFU, TMEM33 / Fold change vs veh, TMEM33 / RFU, WDR75 / Fold change vs veh, WDR75 / RFU, AHCTF1 / Fold change vs veh, AHCTF1 / RFU, TFRC / Fold change vs veh, TFRC / RFU, ZDHHC17 / Fold change vs veh, ZDHHC17 / RFU, NOM1 / Fold change vs veh, NOM1 / RFU, ARL8B / Fold change vs veh, ARL8B / RFU, ZBTB11 / Fold change vs veh, ZBTB11 / RFU, TAMM41 / Fold change vs veh, TAMM41 / RFU, KIAA1704 /// LOC100996395 / Fold change vs veh, KIAA1704 /// LOC100996395 / RFU, ING1 / Fold change vs veh, ING1 / RFU, TRMT61B / Fold change vs veh, TRMT61B / RFU, FUBP3 / Fold change vs veh, FUBP3 / RFU, TP53 / Fold change vs veh, TP53 / RFU, TNKS2 / Fold change vs veh, TNKS2 / RFU, ZFP14 / Fold change vs veh, ZFP14 / RFU, ACTR2 / Fold change vs veh, ACTR2 / RFU, PPP3R1 / Fold change vs veh, PPP3R1 / RFU, PIK3R1 / Fold change vs veh, PIK3R1 / RFU, HNRNPA1 / Fold change vs veh, HNRNPA1 / RFU, RNF170 / Fold change vs veh, RNF170 / RFU, ZNF28 / Fold change vs veh, ZNF28 / RFU, RNGTT / Fold change vs veh, RNGTT / RFU, OGT / Fold change vs veh, OGT / RFU, BRD1 / Fold change vs veh, BRD1 / RFU, MARS / Fold change vs veh, MARS / RFU, ZNF655 / Fold change vs veh, ZNF655 / RFU, FAHD1 / Fold change vs veh, FAHD1 / RFU, BDP1 / Fold change vs veh, BDP1 / RFU, LRRCC1 / Fold change vs veh, LRRCC1 / RFU, ARID1A / Fold change vs veh, ARID1A / RFU, ZNF146 / Fold change vs veh, ZNF146 / RFU, ZNF330 / Fold change vs veh, ZNF330 / RFU, GPN3 / Fold change vs veh, GPN3 / RFU, C9orf123 / Fold change vs veh, C9orf123 / RFU, N4BP2L2 / Fold change vs veh, N4BP2L2 / RFU, ARFIP1 / Fold change vs veh, ARFIP1 / RFU, FAM179B / Fold change vs veh, FAM179B / RFU, BCL10 / Fold change vs veh, BCL10 / RFU, UHRF1BP1L / Fold change vs veh, UHRF1BP1L / RFU, BET1 / Fold change vs veh, BET1 / RFU, CNOT2 / Fold change vs veh, CNOT2 / RFU, ZNF268 / Fold change vs veh, ZNF268 / Fold change vs veh, ZNF507 / RFU, DGCR2 / Fold change vs veh, DGCR2 / RFU, WDSUB1 / Fold change vs veh, WDSUB1 / Fold change vs veh, HSP90B1 /// MIR3652 / RFU, ADSS / Fold change vs veh, ADSS / RFU, GK / Fold change vs veh, GK / RFU, ZNF148 / Fold change vs veh, ZNF148 / RFU, TAF9 / Fold change vs veh, TAF9 / RFU, SLC1A5 / Fold change vs veh, SLC1A5 / RFU, SLMO2 / Fold change vs veh, SLMO2 / RFU, ABCC4 / Fold change vs veh, ABCC4 / RFU, LOC101060439 /// RAP1B / Fold change vs veh, LOC101060439 /// RAP1B / RFU, RFX7 / Fold change vs veh, RFX7 / RFU, GTPBP10 / Fold change vs veh, GTPBP10 / RFU, CNEP1R1 / Fold change vs veh, CNEP1R1 / RFU, BIVM-ERCC5 /// ERCC5 / Fold change vs veh, BIVM-ERCC5 /// ERCC5 / RFU, ILF3 / Fold change vs veh, ILF3 / RFU 11762660_at / Fold change /veh 11762660_at / RFU VCAN (11757783_s_at) / Fold change /veh VCAN (11757783_s_at) / RFU DDX43 (11728927_at) / Fold change /veh DDX43 (11728927_at) / RFU KRT8 (11758188_x_at) / Fold change /veh KRT8 (11758188_x_at) / RFU NKD1 (11759106_at) / Fold change /veh NKD1 (11759106_at) / RFU SRD5A1 (11742802_a_at) / Fold change /veh SRD5A1 (11742802_a_at) / RFU TPSAB1 /// TPSB2 (11721975_s_at) / Fold change /veh TPSAB1 /// TPSB2 (11721975_s_at) / RFU GSTM3 (11746129_a_at) / Fold change /veh GSTM3 (11746129_a_at) / RFU IL23R (11737362_x_at) / Fold change /veh IL23R (11737362_x_at) / RFU TMEM51 (11727254_a_at) / Fold change /veh TMEM51 (11727254_a_at) / RFU PIWIL2 (11732686_x_at) / Fold change /veh PIWIL2 (11732686_x_at) / RFU ORM1 (11744905_x_at) / Fold change /veh ORM1 (11744905_x_at) / RFU CCDC152 (11743942_at) / Fold change /veh CCDC152 (11743942_at) / RFU ECM1 (11717891_a_at) / Fold change /veh ECM1 (11717891_a_at) / RFU IL23R (11748794_a_at) / Fold change /veh IL23R (11748794_a_at) / RFU TNFAIP8L3 (11732012_x_at) / Fold change /veh TNFAIP8L3 (11732012_x_at) / RFU MBOAT4 (11741988_at) / Fold change /veh MBOAT4 (11741988_at) / RFU 11764193_at / Fold change /veh 11764193_at / RFU TMEM53 (11763286_at) / Fold change /veh TMEM53 (11763286_at) / RFU MAGEB2 (11727129_at) / Fold change /veh MAGEB2 (11727129_at) / RFU TMEM200A (11744735_a_at) / Fold change /veh TMEM200A (11744735_a_at) / RFU CCDC152 (11751479_a_at) / Fold change /veh CCDC152 (11751479_a_at) / RFU FAM211A (11726209_a_at) / Fold change /veh FAM211A (11726209_a_at) / RFU RGS16 (11746705_a_at) / Fold change /veh RGS16 (11746705_a_at) / RFU VCAN (11755009_s_at) / Fold change /veh VCAN (11755009_s_at) / RFU RHOB (11743442_s_at) / Fold change /veh RHOB (11743442_s_at) / RFU RGS16 (11720943_a_at) / Fold change /veh RGS16 (11720943_a_at) / RFU RGS16 (11720944_at) / Fold change /veh RGS16 (11720944_at) / RFU, VPS4B / Fold change vs veh, VPS4B / RFU, CREB1 / Fold change vs veh, CREB1 / RFU, DNAJC13 / Fold change vs veh, DNAJC13 / RFU, GNAQ / Fold change vs veh, GNAQ / RFU, CDK5R1 / Fold change vs veh, CDK5R1 / RFU, ZRANB3 / Fold change vs veh, ZRANB3 / RFU, CUL4A / Fold change vs veh, CUL4A / RFU, CCNY / Fold change vs veh, CCNY / RFU, UFL1 / Fold change vs veh, UFL1 / RFU, COG3 / Fold change vs veh, COG3 / RFU, DIAPH2 / Fold change vs veh, DIAPH2 / RFU, SKA2 / Fold change vs veh, SKA2 / RFU, AFF3 / Fold change vs veh, AFF3 / RFU, LMF1 / Fold change vs veh, LMF1 / RFU, IPO11 / Fold change vs veh, IPO11 / RFU, DFFB / Fold change vs veh, DFFB / RFU, FOXP1 / Fold change vs veh, FOXP1 / RFU, CARD8 / Fold change vs veh, CARD8 / RFU, STRN3 / Fold change vs veh, STRN3 / RFU, ADK / Fold change vs veh, ADK / RFU, RASSF2 / Fold change vs veh, RASSF2 / RFU, WIPF1 / Fold change vs veh, WIPF1 / RFU, LARP1B / Fold change vs veh, LARP1B / RFU, RASA1 / Fold change vs veh, RASA1 / RFU, RB1 / Fold change vs veh, RB1 / RFU, PPFIA1 / Fold change vs veh, PPFIA1 / RFU, MAT2A / Fold change vs veh, MAT2A / RFU, CCT5 / Fold change vs veh, CCT5 / RFU, WDR92 / Fold change vs veh, WDR92 / RFU, CUX1 / Fold change vs veh, CUX1 / RFU, TTC7A / Fold change vs veh, TTC7A / RFU, TMEM135 / Fold change vs veh, TMEM135 / RFU, DEPTOR / Fold change vs veh, DEPTOR / RFU, CPM / Fold change vs veh, CPM / RFU, DNAJB6 / Fold change vs veh, DNAJB6 / RFU, CACNA2D3 / Fold change vs veh, CACNA2D3 / RFU, DTX4 / Fold change vs veh, DTX4 / RFU, TFCP2 / Fold change vs veh, TFCP2 / RFU, GMCL1 /// GMCL1P1 / Fold change vs veh, GMCL1 /// GMCL1P1 / RFU, AEBP2 / Fold change vs veh, AEBP2 / RFU, SNHG1 /// SNORD22 /// SNORD25 /// SNORD26 /// SNORD27 /// SNORD28 /// SNORD29 /// SNORD31 / Fold change vs veh, SNHG1 /// SNORD22 /// SNORD25 /// SNORD26 /// SNORD27 /// SNORD28 /// SNORD29 /// SNORD31 / Fold change (Aza/veh), C12orf56 (ProbeSet 11735607_a_at) / Fold change (ACY-1035/veh), C12orf56 (ProbeSet 11735607_a_at) / Fold change (Aza/veh), FGFR1OP (ProbeSet 11751329_s_at) / Fold change (ACY-1035/veh), FGFR1OP (ProbeSet 11751329_s_at) / Fold change (Aza/veh), VPS36 (ProbeSet 11739960_a_at) / Fold change (ACY-1035/veh), VPS36 (ProbeSet 11739960_a_at) / RFU SYPL1 (11715823_x_at) / Fold change /veh SYPL1 (11715823_x_at) / RFU IGFBP7 (11715501_s_at) / Fold change /veh IGFBP7 (11715501_s_at) / RFU REEP3 (11722064_at) / Fold change /veh REEP3 (11722064_at) / RFU IGLL1 (11728026_x_at) / Fold change /veh IGLL1 (11728026_x_at): dose or concentration left out as unconfirmed
Conditions: ProbeSet 11749645_x_at; LIST B

Nc1ncn([C@@H]2O[C@H](CO)[C@@H](O)[C@H]2O)c(=O)n1 [azacitidine]
RFU, ZNF268: 156.52 RFU
